Test results from publication PMC10041525, “New Dual Inhibitors of Bacterial Topoisomerases with Broad-Spectrum Antibacterial Activity and In Vivo Efficacy against Vancomycin-Intermediate Staphylococcus aureus” (Journal of Medicinal Chemistry, 2023).

Tested on: 100 A. baumannii strains (50 MDR, 50 non-MDR)
Test: MIC broth microdilution at IHMA Europe, panel of 100 strains
Type: cell-based
Settings: Acinetobacter baumannii

`C[C@H]1COc2c(N3CCN(C)CC3)c(F)cc3c(=O)c(C(=O)O)cn1c23.C[C@H]1COc2c(N3CCN(C)CC3)c(F)cc3c(=O)c(C(=O)O)cn1c23.O` [Levofloxacin, levofloxacin] was tested, and the MIC (A. baumannii IHMA 1769393, Lithuania 2018, Non-MDR) was at most 0.25 µg/mL, the MIC (A. baumannii IHMA 1769782, Israel 2018, MDR) was 4 µg/mL and the MIC (A. baumannii IHMA 1769910, Israel 2018, Non-MDR) was at most 0.25 µg/mL. It also gave an MIC (A. baumannii IHMA 1790317, Czech Republic 2018, Non-MDR) of at most 0.25 µg/mL, an MIC (A. baumannii IHMA 1790916, Romania 2018, Non-MDR) of at most 0.25 µg/mL and an MIC (A. baumannii IHMA 1791877, Israel 2018, MDR) of 4 µg/mL. The MIC (A. baumannii IHMA 1792961, Jordan 2018, MDR) was 8 µg/mL, the MIC (A. baumannii IHMA 1795669, Tunisia 2018, Non-MDR) was at most 0.25 µg/mL and the MIC (A. baumannii IHMA 1814276, Lebanon 2018, MDR) was 16 µg/mL. The MIC (A. baumannii IHMA 1815198, Kuwait 2018, MDR) was 16 µg/mL, the MIC (A. baumannii IHMA 1815856, Israel 2018, MDR) was 8 µg/mL and the MIC (A. baumannii IHMA 1821468, South Africa 2018, Non-MDR) was at most 0.25 µg/mL. The MIC (A. baumannii IHMA 1829500, Georgia 2018, Non-MDR) was at most 0.25 µg/mL, the MIC (A. baumannii IHMA 1830924, United Kingdom 2018, Non-MDR) was at most 0.25 µg/mL and the MIC (A. baumannii IHMA 1849819, Kuwait 2018, MDR) was 16 µg/mL. For the same compound, the MIC (A. baumannii IHMA 1849829, Kuwait 2018, Non-MDR) was at most 0.25 µg/mL, the MIC (A. baumannii IHMA 1857118, Slovenia 2018, Non-MDR) was at most 0.25 µg/mL and the MIC (A. baumannii IHMA 1863631, France 2018, Non-MDR) was at most 0.25 µg/mL. For the same compound, the MIC (A. baumannii IHMA 1870054, United States 2018, Non-MDR) was at most 0.25 µg/mL, the MIC (A. baumannii IHMA 1884428, Italy 2018, Non-MDR) was at most 0.25 µg/mL and the MIC (A. baumannii IHMA 1884990, Germany 2018, Non-MDR) was at most 0.25 µg/mL. For the same compound, the MIC (A. baumannii IHMA 1900538, Turkey 2018, Non-MDR) was at most 0.25 µg/mL, the MIC (A. baumannii IHMA 1913773, Kenya 2018, Non-MDR) was at most 0.25 µg/mL and the MIC (A. baumannii IHMA 1926285, Qatar 2018, Non-MDR) was at most 0.25 µg/mL. The MIC (A. baumannii IHMA 1926288, Qatar 2018, MDR) was over 16 µg/mL, the MIC (A. baumannii IHMA 1957343, Portugal 2019, Non-MDR) was at most 0.25 µg/mL and the MIC (A. baumannii IHMA 1963732, Turkey 2019, MDR) was 16 µg/mL. The MIC (A. baumannii IHMA 1967860, Spain 2019, Non-MDR) was at most 0.25 µg/mL, the MIC (A. baumannii IHMA 1971673, Latvia 2019, MDR) was 16 µg/mL and the MIC (A. baumannii IHMA 1975075, Israel 2019, Non-MDR) was at most 0.25 µg/mL. The MIC (A. baumannii IHMA 1977077, Kuwait 2019, Non-MDR) was at most 0.25 µg/mL, the MIC (A. baumannii IHMA 1983151, Greece 2019, MDR) was 8 µg/mL and the MIC (A. baumannii IHMA 1984665, Lithuania 2019, MDR) was 16 µg/mL. The MIC (A. baumannii IHMA 1986678, Turkey 2019, Non-MDR) was at most 0.25 µg/mL, the MIC (A. baumannii IHMA 1986738, Turkey 2019, MDR) was 16 µg/mL and the MIC (A. baumannii IHMA 1987162, Croatia 2019, MDR) was 8 µg/mL. For the same compound, the MIC (A. baumannii IHMA 1993615, Turkey 2019, MDR) was 8 µg/mL, the MIC (A. baumannii IHMA 1994284, Italy 2019, MDR) was over 16 µg/mL and the MIC (A. baumannii IHMA 1995161, Czech Republic 2019, Non-MDR) was at most 0.25 µg/mL. It also gave an MIC (A. baumannii IHMA 1997936, Morocco 2019, Non-MDR) of at most 0.25 µg/mL, an MIC (A. baumannii IHMA 1999178, Belgium 2019, Non-MDR) of at most 0.25 µg/mL and an MIC (A. baumannii IHMA 2003279, Turkey 2019, MDR) of 8 µg/mL. The MIC (A. baumannii IHMA 2014367, Jordan 2019, Non-MDR) was at most 0.25 µg/mL, the MIC (A. baumannii IHMA 2014931, South Africa 2019, Non-MDR) was at most 0.25 µg/mL and the MIC (A. baumannii IHMA 2019315, Romania 2019, Non-MDR) was at most 0.25 µg/mL. It also gave an MIC (A. baumannii IHMA 2020360, Croatia 2019, MDR) of 16 µg/mL, an MIC (A. baumannii IHMA 2031511, Greece 2019, Non-MDR) of at most 0.25 µg/mL and an MIC (A. baumannii IHMA 2031524, Greece 2019, MDR) of 4 µg/mL. The MIC (A. baumannii IHMA 2034657, Tunisia 2019, Non-MDR) was at most 0.25 µg/mL, the MIC (A. baumannii IHMA 2035089, Serbia 2019, MDR) was 16 µg/mL and the MIC (A. baumannii IHMA 2035134, Serbia 2019, Non-MDR) was at most 0.25 µg/mL. The MIC (A. baumannii IHMA 2038976, Hungary 2019, MDR) was 8 µg/mL, the MIC (A. baumannii IHMA 2051503, Serbia 2019, MDR) was 16 µg/mL and the MIC (A. baumannii IHMA 2058329, Slovenia 2019, Non-MDR) was at most 0.25 µg/mL. For the same compound, the MIC (A. baumannii IHMA 2065587, France 2019, Non-MDR) was at most 0.25 µg/mL, the MIC (A. baumannii IHMA 2099294, United Kingdom 2019, Non-MDR) was at most 0.25 µg/mL and the MIC (A. baumannii IHMA 2129256, Qatar 2019, Non-MDR) was at most 0.25 µg/mL. The MIC (A. baumannii IHMA 2154584, Israel 2020, MDR) was 8 µg/mL, the MIC (A. baumannii IHMA 2155340, Kenya 2020, MDR) was 16 µg/mL and the MIC (A. baumannii IHMA 2156634, Turkey 2020, MDR) was 16 µg/mL. It also gave an MIC (A. baumannii IHMA 2156709, Turkey 2020, MDR) of 16 µg/mL, an MIC (A. baumannii IHMA 2157614, Australia 2020, Non-MDR) of at most 0.25 µg/mL and an MIC (A. baumannii IHMA 2177232, Lithuania 2020, MDR) of 16 µg/mL. It also gave an MIC (A. baumannii IHMA 2177489, Lithuania 2020, MDR) of 16 µg/mL, an MIC (A. baumannii IHMA 2178574, Ukraine 2020, Non-MDR) of at most 0.25 µg/mL and an MIC (A. baumannii IHMA 2180134, Malaysia 2020, Non-MDR) of 0.5 µg/mL. For the same compound, the MIC (A. baumannii IHMA 2180142, Malaysia 2020, MDR) was 4 µg/mL, the MIC (A. baumannii IHMA 2181370, Morocco 2020, MDR) was 8 µg/mL and the MIC (A. baumannii IHMA 2183729, Argentina 2020, MDR) was 8 µg/mL. For the same compound, the MIC (A. baumannii IHMA 2183849, Argentina 2020, Non-MDR) was at most 0.25 µg/mL, the MIC (A. baumannii IHMA 2184382, Japan 2020, Non-MDR) was at most 0.25 µg/mL and the MIC (A. baumannii IHMA 2193375, Venezuela 2020, MDR) was 8 µg/mL. For the same compound, the MIC (A. baumannii IHMA 2193485, Venezuela 2020, Non-MDR) was at most 0.25 µg/mL and the MIC (A. baumannii IHMA 2193607, Venezuela 2020, MDR) was 8 µg/mL.
